Source: US11148998B2, “Dimethyl-nonatetraenyl-trimethyl-cyclohexyl compounds and uses thereof” (The Regents of the University of Michigan, priority 2017, dated 2021)
Entries after “also recorded” stand apart in the source; their conditions may differ.

Columns and labels:
skin wounds = assay: Wound healing in rats with steroid-induced atrophic skin; format: in vivo, rat
Source text: FIGS. 15A-C: Results from a study in rats in which the skin was made atrophic by topical steroid treatment and then wounded. […] In the control animal (15CL), there was incomplete re-epithelialization over the wound and little collagen deposition in the dermis. […] The lack of irritation/inflammation is expected in the control animal but is unusual for a retinoid-treated animal. The data shown here was consistent over n=5 animals per group.
Given the lack of irritation associated with MDI 301, experiments were conducted reasoning that this retinoid might work in the acute wound setting. Essentially, a group of rats were treated with a potent steroid to induce skin atrophy followed by a wounding of the skin. Following this, rats were treated with vehicle alone or with MDI 301. […] It should be noted that in this study ATRA cannot be used, as its irritant properties exacerbate the original injury.

[1] = system: systemic cytokine release; conditions: intraperitoneal dosing; cited from earlier work
[2] = system: human skin in organ culture; conditions: cited from earlier work
[3] = system: serum pro-inflammatory cytokines; conditions: mouse, in vivo
Source text: Each of the 4 experimental retinoids was made up in DMSO as 0.1% and 0.3% solutions. The material was applied to the treatment area (2 cm^2 area) on a dot marked area on the inter-scapular back) once daily for 7 consecutive days or for 21 consecutive days. The test agent was gently rubbed into the test site after application. As a control, Tretinoin-0.1% was used. […] This is a commonly-prescribed anti-acne medicine. A set amount of the test article, DMSO, DMSO plus test drug, or Tretinoin cream (35 mg) was delivered using a Gilson MICROMAN fully adjustable positive placement pipette.
Serum was obtained from all mice at the end of the study and evaluated for levels of pro-inflammatory cytokines. For this, the same multiplex ELISA used with human samples was employed except that mouse-recognizing antibodies replaced antibodies used to detect the human counterparts.

rhino mouse skin = assay: Rhino mouse topical treatment: skin histology (horn-filled utriculi, epidermal thickness, inflammation); format: in vivo; conditions: topical, concentration not given; for inflammatory response / inflammatory cell infiltrate in histological sections (in words): 21 days
Source text: FIGS. 12A-C: Efficacy of retinoids at normalizing structure of rhino mouse skin after topical treatment for 21 days.
FIGS. 13A-C: Dose related effect of Example 2 on rhino mouse skin.
The rhinomouse model is an industry-standard pre-clinical model for evaluation of retinoids for anti-acne activity. The mice can be treated topically over a course of days with the desired compound (either formulated or in liquid solvent). During the course of treatment, the animals can be evaluated grossly for skin irritation. At the end of the treatment phase, the animals are euthanized. Skin from treated sites can be evaluated for efficacy—reduction in the number of horn-filled utriculi—and for histological evidence of inflammation.
As a control, Tretinoin-0.1% was used. […] This is a commonly-prescribed anti-acne medicine.
One day after the last treatment, animals were euthanized. The animals were injected with 7 ml 10% buffered formalin after euthanasia. 15 minutes later the treated area on the back of the mouse was removed and cut into 8 pieces. Every other piece was taken, so four pieces of skin were mounted in one cassette and fixed for histology. An extra piece of skin from a non-treated area was also evaluated.
Hematoxylin and eosin stained sections were evaluated microscopically for epidermal thickness with measurements made in the inter-follicular regions at 4 representative sites per tissue strip.
The number of horn-filled utriculi was determined by direct counting in the entire section of skin. Each of the four sections per biopsy was used for determining the number of utriculi. Section lengths were measured as a way to normalize findings. Typically, the section of skin varied from 16-20 mm.
Slides were examined microscopically and inflammation was scored on a 0 to 4+ basis. A score of zero indicated no inflammation while increasing collection of inflammatory cells was identified with increasing score. Slides were also evaluated to determine if inflammation was confined to the dermis or whether there was epidermal inflammation. Dermal inflammation was assessed to determine if inflammatory cells were scattered throughout the dermis or whether small abscesses were also present. Finally, the inflammatory lesions were evaluated to determine whether they consisted of primarily mononuclear cells, granulocytic cells or both. A similar scale has been used previously in the assessment of skin irritation.
At the end of the in-life portion of the study, mice were euthanized by CO2 overdose. Hematoxylin and eosin-stained histological sections from each mouse in the control, ATRA-treated and Compound 2-treated groups were evaluated with regard to the number of horn-filled utriculi, epidermal thickness, and inflammation. Briefly, the epidermis of control mice consisted of a thin epidermis with large numbers of horn-filled utriculi (98+10 per 20 mm of epidermal linear length). […] Both the ATRA-treated mouse (top right panel) the Compound 2 treated skin (bottom panel) show both much thickened […] and disappearance of utriculi. […] There were large numbers of inflammatory cells in the dermis. Microabscesses could be seen in places, and migration of inflammatory cells into the epidermis was also evident. The infiltrate consisted of both mononuclear cells and granulocytes. […] The three other experimental retinoids were also examined along with Compound 2. […] In FIG. 13 it can be seen that during the dosing period 0.1% of Compound 2 led to skin thickening, but incomplete resolution of the utricali, whereas at 0.3% the utricali were more fully resolved.

human dermal fibroblasts [4] = assay: Generation of pro-inflammatory cytokines by fibroblasts (multiplex ELISA); format: cell-based; conditions: KBM 1.5 mM calcium, two days, culture fluids
Protocol: Fibroblasts were grown in KBM supplemented with 1.5 mM calcium (i.e., as in the fibroblast cytotoxicity assay) for two days. Culture fluids obtained at the end of the incubation period were assessed for several pro-inflammatory cytokines using a multiplex (ELISA-type) assay. Values shown are means and ranges based on duplicate samples in a single experiment. The experiment was repeated two times with similar results.
It is believed that the pro-inflammatory cytokines are “drivers” of the retinoid-induced skin irritation response. […] In this experiment, fibroblasts were cultured for two days in KBM supplemented with 1.5 mM calcium (i.e., as in the cytotoxicity assay). Culture fluids were collected after two days of incubation and subjected to a multiplex enzyme-linked immunosorbant assay (ELISA) for the following cytokines: TNF-α, IL-1β, IL-6, IL-8, MCP-1 and CXCL-1.

human dermal fibroblasts [5] = assay: Retinoid-induced fibroblast survival under low-calcium conditions; format: cell-based; conditions: KBM 0.1 mM calcium, three days, 0.1 to 5 μg/mL
Protocol: Human dermal fibroblasts are isolated from skin biopsies as described previously and grown in monolayer culture using DMEM supplemented with 10% fetal bovine serum as culture medium (see, e.g., Varani J, et al., J Clin Invest. 1994; 94; Varani J, et al., J. Invest. Dermatol. 94:717-723, 1990). Growth is at 37° C. in a humidified atmosphere containing 5% CO2 and 95% air. For experimental studies, cells are plated at 5×10^4 cells per well in wells of a 24-well culture dish in the same culture medium. One day later, cells are washed and the DMEM culture medium is replaced with Keratinocyte Basal Medium (KBM).
In this assay, low-passage human dermal fibroblasts are grown for three days in Keratinocyte Basal Medium (KBM) at a calcium concentration (0.1 mM) that is too low to support survival. […] How retinoids act to prevent fibroblast lysis is not fully understood, but part of the mechanism involves modulation of calcium transit across the cell membrane in the presence of the active retinoids (see, e.g., Varani J, et al., Am. J. Path. 136:1275-1281, 1990; Varani K, et al., Am J. Pathol. 147:718-729, 1995; Varani J, et al., Amer. J. Pathol. 148: 1307-1312, 1996).

| SMILES | histology of the wound site (skin wounds; 1% cream, after 13 days) | skin irritation and inflammation at the wound site (skin wounds; 1% cream, after 13 days) | healing of skin wounds compared to control rats (skin wounds; 1.0% cream, ~100 mgs daily to wound periphery, 13 days) | systemic cytokine release [1] | effect on collagen-degrading enzyme MMP-1 (collagenase 1) ([2]; human skin organ culture model) | procollagen I production ([2]; human skin organ culture model) | up-regulation of the pro-inflammatory cytokines that underlie retinoid-induced skin irritation ([2]; past studies) | IL-1β serum level [3] | TNF-α serum level [3] | inflammatory response / inflammatory cell infiltrate in histological sections (in words) (rhino mouse skin) | number of utriculi compared to control (in words) (rhino mouse skin) | induction of pro-inflammatory cytokines (TNF-α, IL-1β, IL-6, IL-8, MCP-1, CXCL-1) (human dermal fibroblasts [4]) | protection of fibroblasts from lysis (percentage of initially present cells still viable) (human dermal fibroblasts [5]) |
| --- | --- | --- | --- | --- | --- | --- | --- | --- | --- | --- | --- | --- | --- |
| CC1=C(/C=C/C(C)=C\C=C\C(C)=C\C(=O)OCC(=O)C(C)(C)C)C(C)(C)CCC1 [MDI 301] | confluent layer of epithelial keratinocytes over the wound site and a pronounced zone of fibroblast proliferation with new collagen formation under the epithelial layer | lack of skin irritation (15BR) and lack of inflammation (15CR) | healed more rapidly | did not elicit systemic cytokine release | inhibited the major collagen-degrading enzyme (MMP-1, collagenase 1) | induced procollagen I production | did not up-regulate the pro-inflammatory cytokines |  |  |  |  |  |  |
| CC1=C(/C=C/C(C)=C\C=C\C(C)=C\C(=O)N2CCCC(=O)C2)C(C)(C)CCC1 [Example 3, 1-((2E,4E 6Z,8E)-3,7-dimethyl-9-(2,6,6-trimethylcyclohex-1-en-1-yl)nona-2,4,6,8-tetranonyl)piperidin-3-one] |  |  |  |  |  |  |  | low | low | did not produce an inflammatory response | reduced the number of utriculi as compared to control | much lower levels of the various cytokines than did ATRA | capable of protecting fibroblasts from lysis under low-calcium conditions |
| CC1=C(/C=C/C(C)=C\C=C\C(C)=C\C(=O)N(C)CC(=O)C2(C)CC2)C(C)(C)CCC1 [Example 4, (2E,4E,6Z,8E)-N,3,7-trimethyl—N-(2-(1-methylcyclopropyl)-2-oxoethyl)-9-(2,6,6-trimethylcyclohex-1-en-1-yl)nona-2,4,6,8-tetraenamide] |  |  |  |  |  |  |  | low | low | did not produce an inflammatory response | reduced the number of utriculi as compared to control | much lower levels of the various cytokines than did ATRA; also recorded: comparable to Compound 1 | capable of protecting fibroblasts from lysis under low-calcium conditions |
